We go through seven compounds from BindingDB's records for PubMed 7965746 (U. 109, 1994).

Where “and” joins values, the source holds several entries; their conditions need not be identical. Identical values can stand only once.

As a reminder, the Ki is the equilibrium dissociation constant of an inhibitor or competing ligand from its target. Higher therefore signals lower affinity.

For the assay, the target named is Hrh3 protein (Rattus norvegicus, UniProt Q5PPG3).
Chain of Hrh3 protein (Q5PPG3 whole entry): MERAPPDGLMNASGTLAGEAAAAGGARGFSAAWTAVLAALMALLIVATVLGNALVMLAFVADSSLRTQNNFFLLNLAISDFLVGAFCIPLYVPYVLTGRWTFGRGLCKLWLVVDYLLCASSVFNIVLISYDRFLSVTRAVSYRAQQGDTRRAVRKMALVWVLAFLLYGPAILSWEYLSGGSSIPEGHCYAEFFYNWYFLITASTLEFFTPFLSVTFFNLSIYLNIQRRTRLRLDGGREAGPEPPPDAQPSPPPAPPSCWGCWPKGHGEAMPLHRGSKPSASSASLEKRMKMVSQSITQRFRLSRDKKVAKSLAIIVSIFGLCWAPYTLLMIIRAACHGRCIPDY
With `C[C@@H](N)Cc1c[nH]cn1`, the Ki is 4 nM and 0.5 nM.

As for `S=C(NC1CCCCC1)N1CCC(c2cnc[nH]2)CC1`, the Ki is 4 nM and 2 nM.

With `CNC(=S)NCCCCc1cnc[nH]1` [1-[4-(1H-imidazol-5-yl)butyl]-3-methylthiourea], the Ki was 68 nM and 70 nM and 180 nM.

Consider `N=C(N)SCCc1cnc[nH]1` [2-(3H-imidazol-4-yl)ethylsulfanylmethanimidamide], for which the Ki was 0.15 nM and 1 nM and 0.1 nM.

As to `Cc1[nH]cnc1CSCCNC(=N)NCCCc1c[nH]cn1` [2-[3-(1H-imidazol-5-yl)propyl]-1-(2-{[(5-methyl-1H-imidazol-4-yl)methyl]sulfanyl}ethyl)guanidine], the Ki was 75 nM and 65 nM and 45 nM.

With `C[C@H](N)Cc1c[nH]cn1` [CAS_75614-93-6], the Ki was 77 nM and 470 nM and 50 nM.

On to `CCCCCCC(=O)N1CCC(c2cnc[nH]2)CC1` [Carboperamide], for which the Ki is 6.1 nM and 20 nM.
